Measurements taken from patent publication US9579313B2, “Hepatitis B antiviral agents” (Novira Therapeutics, Inc., priority 2013, dated 2017).

Columns and labels:
[1] = biological target: T1, HBV C150Bo capsid protein (HBV CA protein) (Hepatitis B virus genotype D subtype adw, UniProt P03147, C107A/C48A/C61A/R150C); assay: HBV assembly assay (fluorescence quenching in vitro capsid assembly); format: biochemical
T1 construct: amino acids 1-150, C49A, C61A, C107A, 150C; made in house; host or cells: E. coli
Source text: The fluorescence quenching in vitro assembly HBV assay was developed according to a method described by Zlotnick and coworkers (Nature Biotechnology 2006, 24:358). The assay is based on the observation that the C-termini of the HBV core protein cluster together during capsid formation. This assay utilizes a mutant C150 HBV capsid protein where all wild-type cysteines are mutated to alanines, but a C-terminal cysteine residue is preserved and is labeled with fluorescent BoDIPY-FL dye. […] Thus, the assay measures the ability and potency of test compounds to modulate capsid assembly by monitoring the fluorescence of the labeled capsid C150Bo protein.
In a typical assay, the mutant HBV C150 protein (amino acids 1-150, C49A, C61A, C107A, 150C) is cloned into a T7 RNA-polymerase based expression vector, expressed in E. coli and purified to homogeneity as a dimer. The purified HBV core protein is desalted and labeled with BODIPY-FL Dye.
In a non-limiting embodiment, the assembly assay is conducted in 96-well plate format. The assembly reactions are carried out in 50 mM Hepes buffer, pH 7.5 and 150 mM NaCl. The compounds are pre-incubated with the HBV CA protein for 15 min, and the assembly reactions are initiated by addition of NaCl. The reaction is allowed to continue for 1 hour at room temperature.
To determine the effect on capsid assembly, each test compound is initially screened at 4 different concentrations: 10 μM, 3 μM, 1 μM and 0.3 μM in duplicates. […] Identified primary hits are confirmed in follow-up studies as described elsewhere herein. […] EC50 values for test compounds are determined via analysis of the dose-response curve.
Selected compounds of the invention were assayed in the HBV assembly assay, as described elsewhere herein. The assembly assay was conducted in 96-well plate format. The assembly reactions were carried out in 50 mM Hepes buffer, pH 7.5 and 150 mM NaCl. The compounds were pre-incubated with the HBV CA protein for 15 min, and the assembly reactions were initiated by addition of NaCl. The reaction was allowed to continue for 1 hour at room temperature.
To determine the effect on capsid assembly, each test compound was initially screened at 4 different concentrations: 10 μM, 3 μM, 1 μM and 0.3 μM in duplicates.

[2] = test system: HBV replication in HepG2-2.2.15 cells; assay: Dot-blot assay of HBV replication (HBV DNA levels); settings: Hepatitis B virus, HepG2 2.2.15, 144 h, read-out: Activity in dot-blot-assay (EC50, reduction in HBV DNA levels)
Procedure: In the first anti-viral assay, the ability of compounds to inhibit HBV replication in an HBV-producing hepatoma cell line using the dot-blot method is evaluated.
Briefly, confluent monolayers of HepG2-2.2.15 cells are incubated with complete medium containing various concentrations of a test compound. Three days later, the culture medium is replaced with fresh medium containing the appropriately diluted test compound. Six days following the initial administration of the test compound, the cell culture supernatant is collected, and cell lysis is performed. The samples are applied onto Nylos membranes and DNA is immobilized to the membrane by UV cross-linking. After pre-hybridization, the HBV probe is added and the hybridization is performed overnight. The membranes are exposed to the Kodak films; antiviral activity is calculated from the reduction in HBV DNA levels (EC50).
In the first anti-viral assay, the ability of compounds to inhibit HBV replication in an HBV-producing hepatoma cell line using the dot-blot method was evaluated.
Confluent monolayers of HepG2-2.2.15 cells were incubated with complete medium containing various concentrations of a test compound. Three days later, the culture medium was replaced with fresh medium containing the appropriately diluted test compound. Six days following the initial administration of the test compound, the cell culture supernatant was collected, and cell lysis was performed. The samples were applied onto Nylos membranes and DNA was immobilized to the membrane by UV cross-linking. After pre-hybridization, the HBV probe was added and the hybridization was performed overnight. The membranes were exposed to the Kodak films; antiviral activity was calculated from the reduction in HBV DNA levels (EC50).

T1 sequence (P03147 1-150 C48A/C61A/C107A/R150C): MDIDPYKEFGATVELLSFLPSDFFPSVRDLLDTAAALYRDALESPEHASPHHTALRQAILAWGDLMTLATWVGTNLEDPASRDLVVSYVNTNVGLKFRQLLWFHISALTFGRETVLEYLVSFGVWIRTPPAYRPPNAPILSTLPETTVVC

Compound | EC50 [1] [µM] | EC50 [2] [µM] | EC50 of control compounds in assembly assay ([1]; control compounds)
O=C(Nc1ccc(F)c(Cl)c1)c1cc(S(=O)(=O)N2CCC(O)CC2)cc2[nH]ccc12 [Compound 949] | < 10 | < 10 | 
COC1(CO)CCN(S(=O)(=O)c2cc(C(=O)Nc3ccc(F)c(Cl)c3)c3cc[nH]c3c2)CC1 [Compound 1537] |  | < 10 | 
COCC1(O)CCN(S(=O)(=O)c2cc(C(=O)Nc3ccc(F)c(Cl)c3)c3cc[nH]c3c2)CC1 [Compound 1534] | < 10 |  | 
O=C(Nc1cc(F)c(F)c(F)c1)c1cc(S(=O)(=O)N2CC(O)C2)cc2[nH]ccc12 [Compound 1299] | < 10 |  | 
COC(=O)C1=C(C)NC(c2ccccn2)=NC1c1ccc(F)cc1Cl (stereo not shown) [HAP-1, reference compound] |  |  | consistent with the literature
COCC1(O)CCN(S(=O)(=O)c2cc(C(=O)Nc3cc(F)c(F)c(F)c3)c3cc[nH]c3c2)CC1 [Compound 1533] | < 10 | < 10 | 
O=C(Nc1ccc(F)c(F)c1)c1cc(S(=O)(=O)N2CCC(O)CC2)cc2[nH]ccc12 [Compound 1288] |  | < 10 | 
COCC1(O)CCN(S(=O)(=O)c2cc(C(=O)Nc3ccc(F)c(F)c3)c3cc[nH]c3c2)CC1 [Compound 1535] | < 10 | < 10 | 
O=C(Nc1ccc(F)c(Cl)c1)c1cc(S(=O)(=O)N2CC(O)C(F)C2)cc2[nH]ccc12 (stereo not shown) [Compound 1294] | < 10 | < 10 | 
O=C(Nc1ccc(F)c(F)c1)c1cc(S(=O)(=O)N2CCC(O)(CO)CC2)cc2[nH]ccc12 [Compound 1304] | < 10 |  | 
O=C(Nc1cc(F)c(F)c(F)c1)c1cc(S(=O)(=O)N2CCC(O)CC2)cc2[nH]ccc12 [Compound 1287] | < 10 |  | 
O=C(Nc1ccc(F)c(Cl)c1)c1cc(S(=O)(=O)N2CC(O)C2)cc2[nH]ccc12 [Compound 1298] |  | < 10 | 
O=C(Nc1ccc(F)c(F)c1)c1cc(S(=O)(=O)N2CCC(CO)C(O)C2)cc2[nH]ccc12 (stereo not shown) [Compound 1292] | < 10 |  | 
NC1CCN(S(=O)(=O)c2cc(C(=O)Nc3cc(F)c(F)c(F)c3)c3cc[nH]c3c2)CC1 [Compound 1508] | < 10 | < 10 | 
O=C(Nc1ccc(F)c(Cl)c1)c1cc(S(=O)(=O)N2CCC(O)CC2)c2[nH]cnc2c1 [Compound 1472] |  | < 10 | 
O=C(Nc1ccc(F)c(Cl)c1)c1cc(S(=O)(=O)N2CCC(CO)C(O)C2)cc2[nH]ccc12 (stereo not shown) [Compound 1290] |  | < 10 | 
O=C(Nc1cc(F)c(F)c(F)c1)c1cc(S(=O)(=O)N2CCC(O)(CO)CC2)cc2[nH]ccc12 [Compound 1303] | < 10 |  | 
O=C(Nc1ccc(F)c(Cl)c1)c1cc(S(=O)(=O)N2CCC(O)(CO)CC2)cc2[nH]ccc12 [Compound 1302] |  | < 10 | 
COC1(CO)CCN(S(=O)(=O)c2cc(C(=O)Nc3cc(F)c(F)c(F)c3)c3cc[nH]c3c2)CC1 [Compound 1536] | < 10 |  | 
O=C(Nc1cc(F)c(F)c(F)c1)c1cc(S(=O)(=O)N2CCC(CO)C(O)C2)cc2[nH]ccc12 (stereo not shown) [Compound 1291] | < 10 |  | 
O=C(Nc1ccc(F)c(F)c1)c1cc(S(=O)(=O)N2CC(O)C(F)C2)cc2[nH]ccc12 (stereo not shown) [Compound 1296] | < 10 |  | 
O=C(Nc1ccc(F)c(F)c1)c1cc(S(=O)(=O)N2CC(O)C2)cc2[nH]ccc12 [Compound 1300] | < 10 | < 10 | 
